Values of other authors as cited in patent US12343320B2, “Intraveneous dofetilide to reduce the risk of developing AF/AFL post coronary bypass surgery” (Hyloris Developments SA, priority 2023, dated 2025).

Tests used:
QTc interval = conditions: average slope; Sedgwick et al 1991
[1] = IV dose of 1.5 μg/kg, restated rounded

In the case of `CN(CCOc1ccc(NS(C)(=O)=O)cc1)CCc1ccc(NS(C)(=O)=O)cc1` [dofetilide, Dofetilide], the “QTc change per dofetilide plasma concentration, average” value (QTc interval) is given as 20 ms and the peak level [1] is given as 1.7 ng/mL.
